Read-outs that look alike come from different tables or passages of the source.
How the values were obtained:
[1] = test system: 18Co normal myofibroblasts; assay: SRB cell proliferation assay, 18Co normal myofibroblasts; assay type: cell-based
Method: Next, 18Co cells (ATCC No. CRL-1459™) were cultured in MEM medium containing HEPES buffer, 10% fetal bovine serum, 100 U/mL penicillin, and 100 μg/mL streptomycin (all from Sigma Aldrich).
(§1) Betulin 1 and its derivatives were dissolved in dimethyl sulfoxide (DMSO; Sigma Aldrich) as a 15 mM stock solution. Working solutions were prepared through the dilution of stock solutions with culture medium. The final DMSO concentration in culture media was adjusted to 0.2%. The effect of tested compounds on the proliferation of SK-OV-3 and OVCAR-3 cells was measured using the In Vitro Toxicology Assay Kit, Sulforhodamine B based (Sigma Aldrich). Cells were seeded in 96-well plates (Greiner Bio-One, Kremsmünster, Austria) at an initial density of 3 × 10^3 cells per well in 200 µL of culture medium. After 24 h of incubation, betulin 1 and its derivatives at a concentration range of 0.1 μM to 30 μM were added to the wells. Control cultures were treated with vehicle alone (0.2% DMSO). The incubation periods for cells with test compounds were 1 day, 3 days, and 5 days. After appropriate incubation periods, culture media were removed, and cells were fixed in 10% trichloroacetic acid solution for 60 min at 4 °C. After fixation, the TCA solution was removed, and the plates were washed three times with deionized water (300 μL/well) and dried. At the next step, cells were stained with 0.4% sulforhodamine B for 30 min. The excess dye was removed by washing three times with 1% (vol/vol) acetic acid. The protein-bound dye was dissolved in 200 μL 10 mM Tris base solution. Absorbance was measured at 570 nm and 690 nm (reference wavelength) using the MRX Revelation plate reader (Dynex Technologies, Chantilly, VA, USA).
(§2) GraphPad Prism 10.0.2 (GraphPad Software Inc., San Diego, CA, USA) software was used for calculations and the statistical analysis of the IC50 values (Table 1). IC50 was determined by using the “nonlinear regression” mode, and the “log(inhibitor) vs. normalised response—Variable slope” equation was chosen in GraphPad Prism software for calculations. The obtained data were normalized to run from 100% down to 0%, and logarithms of concentration were used. Graphs (Figure 2, Figure 3, Figure 4, Figure 5 and Figure 8, and Supplementary Figure S1) were also prepared using this software. In the case of the lack of normal distribution or homogeneity of variances, the remaining results were analyzed using a non-parametric Kruskal–Wallis test with multiple comparisons. Post hoc analysis was performed with the non-parametric equivalent of Tukey’s test. A p value of <0.05 was considered statistically significant. Otherwise, a one-way ANOVA followed by a Tukey’s post hoc test was applied. t-tests was used to perform pairwise comparisons between group means. Analysis was performed using Statistica 13.1 software (StatSoft, Tulsa, OK, USA).

SK-OV-3 cells [2] = assay: LDH release assay, SK-OV-3; assay type: cell-based, human; conditions: SK-OV-3, 24 h, all concentrations (3, 10, 30 μM)
Method: (§3) In order to evaluate the cytotoxic effect, the release of LDH into the culture medium using the In Vitro Toxicology Assay Kit, Lactic Dehydrogenase Based (TOX7; Sigma Aldrich) was assessed. SK-OV-3 and OVCAR-3 cells were plated and cultured in 96-well plates (Greiner Bio-One) at the initial density of 5 × 10^3 cells per well in 100 µL of culture medium. The density of the cells was determined in the same manner as in the SRB assay. After 24 h, the media were replaced with the working solutions, which contained appropriate test compounds at concentrations of 3 μM, 10 μM, 30 μM, and control medium (0.2% DMSO). Cells were exposed to the test substances for 24 h. The background control comprised wells without cells with only control medium. To determine the maximal LDH release (high control), half of the control cultures were treated with lysis buffer. Wells with untreated cells were used as the low control of the assay. LDH activity in media was assessed according to the manufacturer’s protocol. The absorbance was measured at wavelengths of 490 nm and 690 nm (background), and the percentage of released enzyme was calculated for cells growing in the presence of compounds according to the formula:Cytotoxicity [%] = [(AT − AL)/(AH − AL)] × 100 where AT is the absorbance of treated wells; AL is low control; and AH is high control (maximal LDH release).
(§4) Cytotoxicity was expressed as a percentage of the released LDH calculated according to the difference between the absorbance of the treated and low control wells divided by the difference between the absorbance of the high control and low control wells.

OVCAR-3 cells [3] = assay: SRB cell proliferation assay, OVCAR-3; assay type: cell-based, human; conditions: for IC50: Homo sapiens; for concentration at which antiproliferative activity (decrease in the number of cells) was evident: OVCAR-3, SRB assay, 0.1–30 µM
Method: OVCAR-3 cells (ATCC No. HTB-161™) were cultured in RPMI-1640 medium containing HEPES buffer (2.383 g/L), sodium bicarbonate (1.5 g/L), sodium pyruvate (0.11 g/L) supplemented with 20% fetal bovine serum, 10 µg/mL bovine insulin, 100 U/mL penicillin, and 100 μg/mL streptomycin (all from Sigma Aldrich).
as §1, §2

OVCAR-3 cells [4] = assay: LDH release assay, OVCAR-3; assay type: cell-based, human; conditions: OVCAR-3, 24 h
Method: as §3, §4

SK-OV-3 cells [5] = assay: SRB cell proliferation assay, SK-OV-3; assay type: cell-based, human; conditions: for IC50: Homo sapiens; for concentration at which antiproliferative activity (decrease in the number of cells) was evident: SK-OV-3, SRB assay, 0.1–30 µM
Method: This study used ovarian cancer cell lines, which are part of the panel of cell lines used as part of the NCI-60 Human Cell Lines Screen program, characterized by overexpression of the c-erbB2/neu (HER2) receptor [62, 63]. The human ovarian cancer cell lines (SK-OV-3 and OVCAR-3) were purchased from the American Type Culture Collection (ATCC®, Manassas, Virginia, USA). SK-OV-3 cells (ATCC No. HTB-77™) were cultured in McCoy’s 5A medium containing D-glucose (3 g/L), L-glutamine (0.219 g/L), and sodium bicarbonate (2.2 g/L) supplemented with 10% fetal bovine serum, 10 mM HEPES (pH 7.3–7.5), 100 U/mL penicillin, and 100 μg/mL streptomycin (all from Sigma Aldrich).
as §1, §2

[6] = test system: human melanoma cell line A2058; parameters: method as in PMID 28100848; conditions: A2058, 3 μM; cited from earlier work
SK-OV-3 cells [7] = assay: TMRM analysis of mitochondrial membrane potential; assay type: cell-based, human; conditions: SK-OV-3, 3 h, 30 µM
Method: Tetramethylrhodamine methyl ester (Sigma Aldrich) was used for the assessment of changes in the transmembrane potential of mitochondria. TMRM is a fluorescent cationic dye accumulating in mitochondria in a potential-dependent manner. Cell cultures were prepared as described above for acridine orange staining. Cells were exposed to test solutions for 3 h, and then TMRM was added (final concentration 100 nM) followed by incubation for 30 min in the CO2 incubator. Prior to observation, the plates were centrifuged (250× g, 5 min), and the medium was changed to PBS. The cells were analyzed under the Nikon Eclipse TS-100F microscope and photographed.

[8] = test system: human melanoma cell line C32; parameters: method as in PMID 28100848; conditions: C32, 3 μM; cited from earlier work
SK-OV-3 cells [9] = assay: DNA fragmentation assay (Cell Death Detection ELISA, cytoplasmic fraction), SK-OV-3; assay type: cell-based, human; conditions: SK-OV-3, 24 h, 3, 10, 30 µM
Method: (§5) Fragmentation of genomic DNA was determined by means of the Cell Death Detection ELISAPLUS kit (Roche, Basel, Switzerland). This method rests on the immunoenzymatic detection of DNA–histone complexes in the cytoplasmic cell fraction or cell culture supernatants. Cells were plated and cultured in 96-well plates (Greiner Bio-One) at the initial density of 5 × 10^3 cells per well in 100 µL of culture medium. Cells were allowed to attach and grow for 1 day prior to the addition of test reagents. Then, the media were replaced with the working solutions (3 µM, 10 µM, 30 µM), and cells were exposed to compounds 2–6 for 24 h. In some cases, 5 µM cyclosporin A (CsA, an inhibitor of the mitochondrial permeability transition) was added to the cells 30 min before treatment with the betulin derivative. Subsequently, cells were incubated concomitantly with both compounds. After a 24 h incubation period, plates were centrifuged (200× g; 10 min), media were removed, and cells were lysed for 30 min at room temperature. At the next step, the lysates were again spun (200× g; 10 min), and 20 µL of supernatants (cytoplasmic fractions) was moved to the new 96-well streptavidin-coated plate. In one experiment, the presence of mono- and oligonucleosomes was determined in 20 µL samples of centrifuged culture supernatants (media) to detect the permeability of plasma membrane (considered as an indicator of cell necrosis). Then, the sandwich ELISA assay was fulfilled according to the manufacturer’s protocol. Absorbance was measured at 405 nm and 490 nm (reference wavelength), and the enrichment factor of the cytoplasmic (or supernatant) fraction in mono- and oligonucleosomes was calculated according to the formula: EF = absorbance of sample cells/absorbance of control cells.
(§6) A high EF index in the cytoplasmic fraction (resulting from DNA fragmentation while maintaining the tightness of cell membranes) is a typical indicator of the relatively early stage of apoptosis.

OVCAR-3 cells [10] = assay: DNA fragmentation assay (Cell Death Detection ELISA, cytoplasmic fraction), OVCAR-3; assay type: cell-based, human; conditions: OVCAR-3, 24 h, 3, 10, 30 µM, among the betulin derivatives
Method: as §5, §6

[11] = 18Co, 3 days treatment, Neg: negative in the concentration used
[12] = 18Co, 5 days treatment, Neg: negative in the concentration used
[13] = 72 h, OVCAR-3, 3 days treatment, SRB assay, read-out: IC50
[14] = 120 h, OVCAR-3, 5 days treatment, SRB assay, read-out: IC50
[15] = 72 h, SK-OV-3, 3 days treatment, SRB assay, read-out: IC50
[16] = 120 h, SK-OV-3, 5 days treatment, SRB assay, read-out: IC50

Compound	IC50 [1, 11]	IC50 [1, 12]	IC50 (OVCAR-3 cells [3]; OVCAR-3, 72 h)	IC50 (OVCAR-3 cells [3]; OVCAR-3, 120 h)	concentration at which antiproliferative activity (decrease in the number of cells) was evident (OVCAR-3 cells [3])	IC50 (SK-OV-3 cells [5]; SK-OV-3, 72 h)	IC50 (SK-OV-3 cells [5]; SK-OV-3, 120 h)	concentration at which antiproliferative activity (decrease in the number of cells) was evident (SK-OV-3 cells [5])	IC50 (OVCAR-3 cells [3]; [13])	IC50 (OVCAR-3 cells [3]; [14])	IC50 (SK-OV-3 cells [5]; [15])	IC50 (SK-OV-3 cells [5]; [16])	further results
C#CC(=O)OC[C@]12CC[C@@H](C(=C)COP(=O)(OCC)OCC)C1C1CCC3[C@@]4(C)CC[C@H](O)C(C)(C)C4CC[C@@]3(C)[C@]1(C)CC2 (stereo partly shown) [Compound 5, 30-diethoxyphosphoryloxy-28-O-propynoylbetulin]	Neg	Neg	540 nM	600 nM	1 µM	280 nM	290 nM	1 µM	–	–	–	–	cytotoxicity (released LDH) (SK-OV-3 cells [2]): strong cytotoxic effect; cytotoxicity (released LDH) (OVCAR-3 cells [4]; all concentrations (3, 10, 30 μM)): significant cytotoxic activity
CC(=O)O[C@H]1C(=O)[C@@]2(C)[C@H]([C@H](OC(=O)c3ccccc3)[C@]3(O)C[C@H](OC(=O)[C@H](O)[C@@H](NC(=O)c4ccccc4)c4ccccc4)C(C)=C1C3(C)C)[C@]1(OC(C)=O)CO[C@@H]1C[C@@H]2O [PTX, Paclitaxel, reference compound]	Neg	–	–	–	–	–	–	–	4.49 nM	2.97 nM	4.39 nM	5.65 nM	IC50 ([1]; 120 h, 18Co, 5 days treatment, Neg: negative in the concentration used, read-out: IC50): 14.8 nM
C#CC(=O)OC[C@]12CC[C@@H](C(=C)C)[C@@H]1[C@H]1CC[C@@H]3[C@@]4(C)CC[C@H](O)C(C)(C)[C@@H]4CC[C@@]3(C)[C@]1(C)CC2 [Compound 2, 28-O-propynoylbetulin]	Neg	Neg	–	–	≥ 0.3 µM	–	–	≥ 0.3 µM	160 nM	190 nM	180 nM	200 nM	inhibition of proliferation [6]: strong inhibition; mitochondrial membrane potential (TMRM fluorescence) (SK-OV-3 cells [7]): reduced the mitochondrial membrane potential; inhibition of proliferation [8]: strong inhibition; DNA fragmentation (enrichment factor, internucleosomal DNA fragments) (SK-OV-3 cells [9]): moderate increases
C#CC(=O)O[C@H]1CC[C@@]2(C)C(CC[C@]3(C)C2CCC2C4[C@H](C(=C)C)CC[C@]4(COP(=O)(OCC)OCC)CC[C@]23C)C1(C)C (stereo partly shown) [Compound 4, 28-O-diethoxyphosphoryl-3-O-propynoylbetulin]	–	–	1880 nM	1450 nM	> 3 µM	1080 nM	1330 nM	–	–	–	–	–	DNA fragmentation (enrichment factor) (OVCAR-3 cells [10]): greatest effect; IC50 ([1]; 72 h): 9470 nM; IC50 ([1]; 120 h): 23700 nM; cytotoxicity (released LDH), loss of cell membrane integrity (OVCAR-3 cells [4]; 10 μM and 30 μM): loss of cell membrane integrity was also confirmed

From PMC10671498, “Antiproliferative and Cytotoxic Properties of Propynoyl Betulin Derivatives against Human Ovarian Cancer Cells: In Vitro Studies” (International Journal of Molecular Sciences, 2023)
